Experiment [1] in a line: Binding affinity to recombinant TetR(D) expressed in Escherichia coli RB791 by SPR analysis.
Experiment [2] in a line: Binding affinity to recombinant TetR(D) expressed in Escherichia coli RB791 by fuorescence assay.

`CN(C)[C@@H]1C(O)=C(C(N)=O)C(=O)[C@@]2(O)C(O)=C[C@@H]([C@]3(C)OC(=O)c4c(O)ccc(Cl)c43)C[C@@H]12`: in experiment [1], the Ka amounted to 0.8 µM⁻¹.

`CN(C)[C@@H]1C(O)=C(C(N)=O)C(=O)[C@@]2(O)C(O)=C3C(=O)c4c(O)ccc(Cl)c4[C@@](C)(O)[C@H]3C[C@@H]12`: the Ka in experiment [2] was determined as 2.3 µM⁻¹; in experiment [1], 2.36 µM⁻¹.

The record behind these values is ChEMBL document CHEMBL1806395, “Recognition of drug degradation products by target proteins: isotetracycline binding to Tet repressor” (J Med Chem, 2011).
